In patent publication US4156427A, “Injectable male animal sterilant for selectively controlling the function of testes” (priority 1977, dated 1979):
Like-named read-outs stand apart in the source and are kept apart here.

Tests used:
[1] = tested on: male reproduction of sexually mature rats; assay: Example 5: zinc sulfate injected into the testes of sexually mature rats; format: in vivo; settings: rat, 0.5, 2.5 and 5.0 mg into the testes
Text: Such injection was made into the midline of each testis with a sterilized needle.

[2] = tested on: purebred Angus bulls; assay: Example 17: injection into testes of Angus bulls, rate of gain and carcass quality; format: in vivo, cattle; settings: for BODY WEIGHT Final: after one year; for BODY WEIGHT Final / % Fat / % Protein / Rate of Gain: III 500.0 mg tannic acid, IV 500.0 mg ZnSO4.7H2 O, V 250.0 mg + 250.0 mg; for % Fat / % Protein / Rate of Gain / rate of gain vs surgically castrated animals: one year; for Rate of Gain: surgically castrated 1.29; for rate of gain vs surgically castrated animals: vs Group II surgically castrated
Procedure: Ten purebred Angus bulls weighing an average of 400 pounds were divided into five groups, Group I being a control. Each animal in Group I was injected with 5.0 ml of water in each testis. Those in Group II were surgically castrated. The animals in Group III were injected with 500.0 mg of tannic acid, those in Group IV with 500.0 mg of ZnSO4.7H2 O and those in Group V with 250.0 mg of tannic acid and 250.0 mg of ZnSO4.7H2 O.
The animals were fed concentrate and grazed. After one year, they were sacrificed.

[3] = tested on: male reproduction of sexually mature rats
Procedure: This example illustrates the effect of zinc sulfate on male reproduction of sexually mature rats when administered in the vas diferens.
Eighty sexually mature male rats were divided into four groups, Group I being a control. The rats in Groups II, III and IV were treated by injecting 0.5, 2.5 and 5.0 mg ZnSO4.7H2 O into the vas diferens.
At the end of 60 days, as in the other examples, the rats were sacrificed.

[4] = tested on: male reproduction of sexually mature rats; settings: rat; for Testosterone ng/ml serum / Epididymis weight / Prostate weight / Seminal Vesicles weight / Testes weight: i.p.; for Epididymis weight / Prostate weight / Seminal Vesicles weight / Testes weight: sacrificed at 60 days
[5] = tested on: spermatogenesis / testis; assay: General findings: arrest of spermatogenesis and diffusion of zinc after injection into testis; format: in vivo; settings: astringent zinc sulfate, injected in testis
Procedure: Recommended dosages, as above mentioned, depend upon the size and species of the animal and upon the desired result. Recommended dosages for sterilization of adult dogs weighing less than 10 kg is 0.25 ml into each testis of a mixture containing between 10.0 and 25.0 mg of tannic acid and 25.0 mg of ZnSO4.7H2 O. For dogs weighing between 10 and 15 kg, the recommended dose is 0.5 ml into each testis of a mixture containing between 10.0 and 50.0 mg of tannic acid and 50.0 mg of ZnSO4.7H2O. For those dogs weighing between 16 and 20 kg, the recommended dose is 1.0 ml into each testis of a mixture containing between 50.0 and 100.0 mg of tannic acid and between 75.0 and 100.0 mg of ZnSO4.7H2 O. For dogs weighing over 20 kg, the recommended dose is 1.0 ml in each testis of a mixture containing between 50.0 and 125.0 mg of tannic acid and 125.0 mg of ZnSO4.7H2 O.
In the case of puppies between 6 and 8 weeks of age, the recommended dose is 0.05 ml into each testis of a mixture containing 2.0 mg of tannic acid and 5.0 mg of ZnSO4.7H2 O. For puppies over 8 weeks but not sexually mature, the dose is preferably 0.08 ml into each of the testes of a mixture containing 7.0 mg of tannic acid and 7.0 mg of ZnSO4.7H2 O. For adult cats, the recommended dose is 0.1 ml into each testis of a mixture containing 10.0 mg of tannic acid and 10.0 mg of ZnSO4.7H2 O. […]

[6] = tested on: male reproduction in sexually mature rats; settings: rat
Procedure: One hundred sexually mature rats were divided into two groups, Group I being a control. Each of the Group II rats was injected with 25 mg ZnSO4.7H2 O into each side of the scrotum.
*Animals were sacrificed 60 days after

[7] = tested on: weaned male rats; assay: Example 12: injection into testes of weaned 30-day old rats; settings: 60 days, per testis: II 5.0 mg ZnSO4.7H2 O, III 5.0 mg tannic acid, IV 2.5 mg + 2.5 mg
Procedure: Two hundred 30-day old male rats, just weaned, were divided into four groups, Group I being a control. The rats in Group I were injected with 0.05 ml of water into each testis. The rats in Group II were similarly injected with 5.0 mg of ZnSO4.7H2 O, those in Group III with 5.0 mg of tannic acid and those in Group IV with a mixture (Kastrin) containing 2.5 mg tannic acid and 2.5 mg ZnSO4.7H2 O.
Forty of the animals were sacrificed 60 days after treatment. The others were watched for a year.

[8] = tested on: male reproduction of sexually mature rats; settings: rat
Procedure: This example illustrates the effect of zinc sulfate on male reproduction of sexually mature rats when administered orally.
Three hundred sexually mature rats were divided into three groups, Group I being a control. Group II rats were treated daily with 15.0 mg ZnSO4.7H2 O and Group III rats with 50.0 mg, both groups receiving said treatment for 30 days.
ZnSO4 solution was made up from ZnSO4 . 7H2 O salt.
Therefore 15 and 50 mgZnSO4 . 7H2 O correspond to 8.42 mg, 28.0

[9] = tested on: human spermatozoa; settings: cited from earlier work
[10] = tested on: sexually mature cats; assay: Example 16: injection into testes of sexually mature cats; format: in vivo, cat
Procedure: Those animals in Group I were injected in each testis with 0.1 ml of water.
The testosterone level for the cats in Group I was 6.8±0.2 ng/ml, for those in Group II 4.1±0.3 ng/ml and less than 1 ng/ml for those in Group III.

[11] = tested on: litter mate dogs, 8 weeks old; assay: Example 13: injection into testes of 8 weeks old litter mate dogs; settings: Group II, 20.0 mg tannic acid buffered to pH 6.5 into each testis
Procedure: Thirty-eight litter mate dogs, 8 weeks old, were divided into four groups. The dogs in Group I were a control and were injected with 0.2 ml of water into each testis. The animals in Group II were similarly treated in each testis with 20.0 mg of tannic acid buffered to a pH of 6.5. Those in Group III were treated with 20 mg of ZnSO4.7H2 O and those in Group IV with a mixture of 10 mg of tannic acid and 10 mg of ZnSO4.7H2 O.

[12] = rat, 0.5, 2.5 and 5.0 mg into the vas deferens, 60 days
[13] = 0.5 mg ZnSO4.7H2 O daily 30 days
[14] = 1.0 mg ZnSO4.7H2 O daily 30 days
[15] = 5.0 mg ZnSO4.7H2 O daily 30 days
[16] = i.p., 0.5, 1.0 and 5.0 mg daily 30 days
[17] = 25 mg ZnSO4.7H2 O into each scrotum, 60 days after
[18] = 25 mg ZnSO4.7H2 O into each scrotum, 60 days after, p<0.001 vs control
[19] = 25 mg into each side of the scrotum
[20] = 25 mg into each side of the scrotum, FIGS. 1 and 2
[21] = oral, 15 mg ZnSO4.7H2 O daily 30 days
[22] = oral, 50 mg ZnSO4.7H2 O daily 30 days
[23] = oral, 15.0 and 50.0 mg daily 30 days

## O=S(=O)([O-])[O-].[Zn+2] [zinc sulfate]
[1]
  testosterone level: decrease in the testosterone level
[1]; mated with females in heat
  pregnancy of females mated: No pregnancy resulted
[1]; reduction increased with the dose
  weight of the male reproductive organs: significant reduction in the weight of the male reproductive organs
[2]
  BODY WEIGHT Final: 910
  % Fat: 20.9%
  % Protein: 17.9%
  Rate of Gain: 1.54 lbs/day
  rate of gain vs surgically castrated animals: faster rate of gain than the surgically castrated animals
[3]; rat, 5.0 mg ZnSO4.7H2 O in the vas deferens, mated with females in heat
  impregnation of females: did not impregnate the females
[3]; [12]
  effect on spermatogenesis: no effect on spermatogenesis
  weight of the testes, prostate or seminal vesicles: no significant change in the weight of the testes, prostate or seminal vesicles
[3]; rat, 0.5 and 2.5 mg ZnSO4.7H2 O in the vas deferens, mated with females in heat
  pregnancy of females mated: Pregnancy also occurred
[4]; [13]
  Testosterone ng/ml serum: 6.79 ± 1.34 ng/mL
  Epididymis weight: 0.90 ± 0.02 gm
  Prostate weight: 0.42 ± 0.04 gm
  Seminal Vesicles weight: 0.72 ± 0.04 gm
  Testes weight: 2.94 ± 0.03 gm
[4]; [14]
  Testosterone ng/ml serum: 6.87 ± 0.58 ng/mL
  Epididymis weight: 0.90 ± 0.02 gm
  Prostate weight: 0.46 ± 0.03 gm
  Seminal Vesicles weight: 0.74 ± 0.04 gm
  Testes weight: 3.05 ± 0.07 gm
[4]; [15]
  Testosterone ng/ml serum: 6.30 ± 0.68 ng/mL
  Epididymis weight: 0.88 ± 0.04 gm
  Prostate weight: 0.41 ± 0.02 gm
  Seminal Vesicles weight: 0.89 ± 0.07 gm
  Testes weight: 2.74 ± 0.13 gm
[4]; [16]
  histological changes in the sex organs: no histological changes were observed in the sex organs
  testosterone level: testosterone level was not changed
  weight of the testes, epididymis, prostate or seminal vesicles: no significant reduction in the weight of the testes, epididymis, prostate or seminal vesicles
[4]; treated intraperitoneally, mated with females in heat
  impregnation of females in heat: impregnated the females
[5]
  diffusion of zinc beyond epididymis and prostate: no diffusion beyond that
  diffusion of zinc to the epididymis and prostate: some diffusion of the zinc to the epididymis and prostate
[6]; [17]
  Prostate weight: 0.82 ± 0.06 gm
  Seminal Ves weight: 1.20 ± 0.02 gm
[6]; [18]
  Epididymis weight: 0.56 ± 0.06 gm
  Testes weight: 1.42 ± 0.09 gm
[6]; [19]
  weight of the prostate and seminal vesicles: no difference, however, in the weight of the prostate and seminal vesicles
  weight of the testes and epididymis: significant reduction in the weight of the testes and epididymis
[6]; 25 mg into each side of the scrotum, mated with females in heat
  pregnancy of females mated: No pregnancy resulted
[6]; 25 mg into each side of the scrotum, vs control
  testosterone levels: no significant reduction in testosterone levels
[6]; [20]
  condition of the Leydig cells (histology of the testes): no difference in the condition of the Leydig cells
  condition of the sex cells (histology of the testes): significant change in the condition of the sex cells
[7]
  Epididymis weight: 0.10 ± 0.03 gm
  Prostate weight: 0.05 ± 0.02 gm
  Seminal Vesicles Wt.: 0.05 ± 0.02 gm
  Testes weight: 0.21 ± 0.04 gm
[8]; [21]
  Epididymis weight: 0.94 ± 0.03 gm
  Prostate weight: 0.44 ± 0.03 gm
  Seminal Vesicles weight: 0.73 ± 0.04 gm
  Testes weight: 2.88 ± 0.17 gm
  Testosterone ng/ml serum: 6.25 ± 1.68 ng/mL
[8]; [22]
  Epididymis weight: 0.91 ± 0.04 gm
  Prostate weight: 0.42 ± 0.02 gm
  Seminal Vesicles weight: 0.78 ± 0.04 gm
  Testes weight: 2.94 ± 0.13 gm
  Testosterone ng/ml serum: 6.57 ± 0.58 ng/mL
[8]; [23]
  histological changes in the male reproductive organs: No histological changes were observed
  testosterone levels: no change was noted in testosterone levels
  weight of the testes, epididymis, prostate or seminal vesicles: no significant change in the weight of the testes, epididymis, prostate or seminal vesicles
[8]; treated orally, mated with females in heat
  impregnation of females in heat: impregnated the females

## [Zn] [zinc]
[9]; under certain conditions
  toxic effects on human spermatozoa: can exert toxic effects on human spermatozoa
[9]; zinc 5 μg/ml (0.075 mM), without albumin
  sperm motility: markedly inhibited sperm motility
[9]; zinc 50 μg/ml (0.75 mM), with 4% albumin
  sperm motility: only slightly inhibited sperm motility

## tannic acid
[10]; cats, one week, per testis II 10.0 mg tannic acid pH 6.8, III 5.0 mg tannic acid + 5.0 mg ZnSO4.7H2 O, control 230×10^6 /ml
  sperm count: zero
[10]; cats, II 10.0 mg tannic acid, III 5.0 mg + 5.0 mg per testis
  behaviour / male aggressiveness: acted normally
[10]; cats, II 10.0 mg tannic acid, III 5.0 mg + 5.0 mg per testis, control 6.8±0.2 ng/ml
  testosterone level: 4.1 ± 0.3 ng/mL
[10]; in vivo
  weight gain: None of the animals in Groups II or III gained any more weight than those in Group I
[11]
  muscular appearance: better muscular appearance than those in the control group
[2]
  BODY WEIGHT Final: 826
  % Fat: 18.0%
  % Protein: 18.3%
  Rate of Gain: 1.40 lbs/day
  rate of gain vs surgically castrated animals: faster rate of gain than the surgically castrated animals
[7]
  Epididymis weight: 0.31 ± 0.07 gm
  Prostate weight: 0.10 ± 0.05 gm
  Seminal Vesicles Wt.: 0.14 ± 0.04 gm
  Testes weight: 0.46 ± 0.12 gm
